The values that follow come from PMC7534383, “Structure-activity relationship of 7-aryl-2-anilino-pyrrolopyrimidines as Mer and Axl tyrosine kinase inhibitors” (Journal of Enzyme Inhibition and Medicinal Chemistry, 2020).

pIC50: −log10 of the molar value. “Also recorded” adds a separate entry of the source. Where two headings read alike, the source gives them in different places. A value given as a limit tells only on which side of the number the result lay.

In general, IC50 refers to the concentration that gives 50% inhibition. In general, inhibition refers to how much of the control response was suppressed. A low value points to a response near the control. A word on the pIC50: it is −log10 of the IC50, conventionally taken in molar units.

The target in one assay is T1, MERTK (Homo sapiens, UniProt Q12866).
T1 sequence (Q12866 21-999): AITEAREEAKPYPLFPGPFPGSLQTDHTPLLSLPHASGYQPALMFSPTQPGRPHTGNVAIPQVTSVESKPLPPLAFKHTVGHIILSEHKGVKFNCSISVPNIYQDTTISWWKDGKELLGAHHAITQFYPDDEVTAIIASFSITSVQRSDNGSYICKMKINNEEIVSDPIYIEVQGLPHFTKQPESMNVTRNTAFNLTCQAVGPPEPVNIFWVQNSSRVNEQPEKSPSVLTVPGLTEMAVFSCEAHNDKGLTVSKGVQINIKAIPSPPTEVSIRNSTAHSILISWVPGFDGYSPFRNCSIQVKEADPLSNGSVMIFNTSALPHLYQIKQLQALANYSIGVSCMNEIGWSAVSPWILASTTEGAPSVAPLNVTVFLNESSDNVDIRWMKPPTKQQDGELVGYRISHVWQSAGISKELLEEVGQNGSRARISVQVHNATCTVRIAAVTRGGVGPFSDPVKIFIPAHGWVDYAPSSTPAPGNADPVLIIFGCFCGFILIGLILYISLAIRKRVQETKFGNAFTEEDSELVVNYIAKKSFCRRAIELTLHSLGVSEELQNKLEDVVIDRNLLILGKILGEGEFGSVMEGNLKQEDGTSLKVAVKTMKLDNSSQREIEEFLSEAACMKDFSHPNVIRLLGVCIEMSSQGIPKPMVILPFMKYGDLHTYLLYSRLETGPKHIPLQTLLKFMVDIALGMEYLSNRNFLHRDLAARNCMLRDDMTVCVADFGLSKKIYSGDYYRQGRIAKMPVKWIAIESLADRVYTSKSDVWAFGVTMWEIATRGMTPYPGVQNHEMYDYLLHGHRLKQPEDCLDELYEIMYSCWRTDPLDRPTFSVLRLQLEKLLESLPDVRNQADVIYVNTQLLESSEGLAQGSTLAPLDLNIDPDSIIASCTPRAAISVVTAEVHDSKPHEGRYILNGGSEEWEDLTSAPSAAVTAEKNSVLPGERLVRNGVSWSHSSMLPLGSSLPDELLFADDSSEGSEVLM
Put plainly: Kinase assay at Km ATP (Eurofins Discovery), Mer. Type of assay: biochemical. The following applies: for IC50: Km ATP. The method, then: (§1) All kinase assays were carried out at Km ATP by Eurofins Discovery's Kinase Screening and Profiling services (France).

The next assay has as its target T2, AXL (Homo sapiens, UniProt P30530).
T2 sequence (P30530 26-894): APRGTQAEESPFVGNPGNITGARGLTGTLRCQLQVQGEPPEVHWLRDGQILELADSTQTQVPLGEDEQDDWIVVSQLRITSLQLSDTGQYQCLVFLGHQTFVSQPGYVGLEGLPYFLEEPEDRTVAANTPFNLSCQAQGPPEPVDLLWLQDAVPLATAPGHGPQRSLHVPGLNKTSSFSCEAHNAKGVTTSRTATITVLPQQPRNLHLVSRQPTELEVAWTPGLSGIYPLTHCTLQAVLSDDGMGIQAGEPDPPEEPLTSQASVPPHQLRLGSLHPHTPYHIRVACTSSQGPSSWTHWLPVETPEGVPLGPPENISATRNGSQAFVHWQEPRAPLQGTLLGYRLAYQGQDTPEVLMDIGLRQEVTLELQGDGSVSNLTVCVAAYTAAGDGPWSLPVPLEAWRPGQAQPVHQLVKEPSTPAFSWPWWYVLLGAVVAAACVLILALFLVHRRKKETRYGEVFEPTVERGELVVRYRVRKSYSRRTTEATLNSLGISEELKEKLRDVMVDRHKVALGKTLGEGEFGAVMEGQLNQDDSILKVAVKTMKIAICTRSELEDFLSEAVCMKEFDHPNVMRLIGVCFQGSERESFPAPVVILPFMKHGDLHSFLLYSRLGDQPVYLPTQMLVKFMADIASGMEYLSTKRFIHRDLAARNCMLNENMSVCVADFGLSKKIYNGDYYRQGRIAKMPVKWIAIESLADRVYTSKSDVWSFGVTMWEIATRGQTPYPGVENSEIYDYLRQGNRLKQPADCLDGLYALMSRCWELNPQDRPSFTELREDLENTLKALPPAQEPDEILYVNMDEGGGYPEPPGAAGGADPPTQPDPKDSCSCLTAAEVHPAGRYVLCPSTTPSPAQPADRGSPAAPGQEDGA
Put plainly: Kinase assay at Km ATP (Eurofins Discovery), Axl. The following applies: for IC50: Km ATP. Format: biochemical. The method, then: as §1

The target of assay [1] is T3, TYRO3 (Homo sapiens, UniProt Q06418).
T3 sequence (Q06418 41-890): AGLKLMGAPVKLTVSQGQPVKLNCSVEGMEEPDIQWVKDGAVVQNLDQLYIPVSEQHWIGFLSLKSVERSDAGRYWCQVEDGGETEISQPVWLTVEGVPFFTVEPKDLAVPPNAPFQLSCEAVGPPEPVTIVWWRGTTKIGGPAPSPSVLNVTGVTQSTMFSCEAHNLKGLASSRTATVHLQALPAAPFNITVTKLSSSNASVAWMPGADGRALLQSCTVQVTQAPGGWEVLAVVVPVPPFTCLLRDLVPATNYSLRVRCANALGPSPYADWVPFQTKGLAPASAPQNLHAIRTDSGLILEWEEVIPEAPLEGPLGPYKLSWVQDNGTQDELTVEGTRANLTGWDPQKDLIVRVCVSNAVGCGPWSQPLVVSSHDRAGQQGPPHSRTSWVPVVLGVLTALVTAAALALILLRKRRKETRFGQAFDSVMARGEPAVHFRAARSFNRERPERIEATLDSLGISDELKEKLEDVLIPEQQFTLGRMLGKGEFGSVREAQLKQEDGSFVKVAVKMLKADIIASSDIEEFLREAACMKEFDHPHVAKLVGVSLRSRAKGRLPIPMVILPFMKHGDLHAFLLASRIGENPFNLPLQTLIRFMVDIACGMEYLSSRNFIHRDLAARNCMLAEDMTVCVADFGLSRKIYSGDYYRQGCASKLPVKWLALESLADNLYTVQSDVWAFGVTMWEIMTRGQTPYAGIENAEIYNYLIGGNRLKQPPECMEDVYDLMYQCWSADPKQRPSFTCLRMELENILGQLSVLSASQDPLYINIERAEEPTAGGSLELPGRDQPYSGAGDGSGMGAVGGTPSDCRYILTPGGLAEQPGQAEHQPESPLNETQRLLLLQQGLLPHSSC
The assay is described as follows: Kinase assay at Km ATP (Eurofins Discovery), Tyro3. Type of assay: biochemical. Here is the method: as §1

Assay [2] has as its system Mer phosphorylation in Mer-overexpressed human gastric cancer cell line MKN28. The assay is described as follows: Western blot of Mer phosphorylation in MKN28 cells. Format: cell-based. The following applies: 0.5 and 0.1 μM, 1.5 h, UNC2025 positive control. The method, then: MKN28 cells were obtained from the Korea Institute of Science and Technology (KIST). Cells were cultured in Roswell Park Memorial Institute (RPMI) 1640 medium containing 10% fetal bovine serum and 1% penicillin/streptomycin at 37 °C with 5% CO2 under a humidified atmosphere.
MKN 28 cells (500,000 cells/2 ml) were seeded in each well of 6-well plates and incubated for 24 h. Then, the cells were treated with 20 µL of DMSO stock solution of the corresponding compounds and incubated for a further 1.5 h. After that, the cells were washed with cold Dulbecco's Phosphate-Buffered Saline (DPBS) twice and lysed with RIPA buffer supplemented with protease inhibitor and phosphatase inhibitor cocktails on ice. Equal amounts of protein samples were boiled with 5× SDS-PAGE loading buffer and separated by 10% SDS-PAGE gels, then transferred onto polyvinylidene difluoride (PVDF) membranes. The membranes were blocked with 5% BSA in 1× TBST (1× TBS with 0.1% Tween-20) for 1 h and incubated at 4 °C overnight with a 1:1000 dilution of the following primary antibodies in blocking buffer: pMer (Tyr749 + 753 + 754, ab14921), Mer (CST, # 4319), and ß-actin (SC, # SC-47778). […]
Figure 3. […] Bar graph represents the relative intensities of the total and phosphorylated Mer as determined by band densitometry using image analysis software.

In the next assay the test system is Mer. The conditions noted are these: Figure 1, known TAM kinase inhibitors; cited from earlier work.
In assay [3] the target is T3, TYRO3. The following applies: Figure 1, known TAM kinase inhibitors; cited from earlier work.
Setting [4] is: Table 2, read-out: IC50 (nM) MER.

Take `COc1ccc(-n2ccc3cnc(Nc4cc(OC)cc(N5CCC(N6CCCC6)CC5)c4)nc32)cc1` [Compound 27, N-(3-Methoxy-5–(4-(pyrrolidin-1-yl)piperidin-1-yl)phenyl)-7–(4-methoxyphenyl)-7H-pyrrolo[2,3-d]pyrimidin-2-amine]: the figures for the IC50 at MERTK (setting [4]) and against AXL (Table 2) were 2 nM and 16 nM, respectively. Besides, at 1 µM the inhibition against TYRO3 [1] was 40%. For the same molecule, the “Inhibitory effect on Mer phosphorylation” value in assay [2] is on record as “better effect on blocking phosphorylation than UNC2025; also recorded: considerable inhibition for Mer phosphorylation in cells”.
Regarding `COc1ccc(-n2ccc3cnc(Nc4cc(OC)cc(N5CCN(C)CC5)c4)nc32)cc1` [Compound 25, N-(3-Methoxy-5–(4-methylpiperazin-1-yl)phenyl)-7–(4-methoxyphenyl)-7H-pyrrolo[2,3-d]pyrimidin-2-amine], the IC50 amounted to 2 nM on MERTK (setting [4]) and 17 nM at AXL (Table 2). The inhibition at 1 µM at TYRO3 [1] was found to be 86%.
In the case of `COc1ccc(-n2ccc3cnc(Nc4cccc(-c5ccccc5)c4)nc32)cc1` [Compound 4, N-([1,1′-Biphenyl]-3-yl)-7–(4-methoxyphenyl)-7H-pyrrolo[2,3-d]pyrimidin-2-amine], the IC50 was more than 3000 nM on MERTK (Table 1, mean values, read-out: IC50 (nM) MERTK) and more than 3000 nM against AXL (Table 1, mean values). Moreover, at 1 µM the inhibition at TYRO3 [1] was 12%.
For `COc1ccc(-n2ccc3cnc(Nc4ccc(N5CCN(C)CC5)c(OC)c4)nc32)cc1` [Compound 16, N-(3-Methoxy-4–(4-methylpiperazin-1-yl)phenyl)-7–(4-methoxyphenyl)-7H-pyrrolo[2,3-d]pyrimidin-2-amine], the concentration for half-maximal inhibition (IC50) on MERTK (setting [4]) was determined as 15 nM; against AXL (Table 2), 104 nM. At MERTK (relative to compound 2), the “fold decreased IC50 for Mer compared to 2” value is reported as 2.6 fold. Further, the “fold decreased IC50 for Axl compared to 2” value at AXL (relative to compound 2) came to 12 fold. At TYRO3 [1], this molecule yielded an inhibition at 1 µM of 27%.
Turning to `COc1cc(Nc2ncc3ccn(-c4ccc(OC(F)(F)F)cc4)c3n2)cc(N2CCC(N3CCCC3)CC2)c1` [Compound 33, N-(3-Methoxy-5–(4-(pyrrolidin-1-yl)piperidin-1-yl)phenyl)-7–(4-(trifluoromethoxy)phenyl)-7H-pyrrolo[2,3-d]pyrimidin-2-amine], the half-inhibitory concentration (IC50) on MERTK (Table 3, read-out: IC50 (nM) MER) amounted to 9 nM; against AXL (Table 3), 57 nM. In addition, at TYRO3 [1], the inhibition at 1 µM was 23%.
On to `COc1ccc(-n2ccc3cnc(Nc4cc(OC)cc(N5CCC(C)(N6CCCC6)CC5)c4)nc32)cc1` [Compound 28, N-(3-Methoxy-5–(4-methyl-4-(pyrrolidin-1-yl)piperidin-1-yl)phenyl)-7–(4-methoxyphenyl)-7H-pyrrolo[2,3-d]pyrimidin-2-amine], for which the IC50 stood at 7 nM at MERTK (setting [4]) and 32 nM on AXL (Table 2). For the same molecule, at TYRO3 [1], testing at 1 µM gave an inhibition of 72%.
On to `COc1ccc(-n2ccc3cnc(Nc4cc(OC)cc(N5CCCC(N6CCCC6)C5)c4)nc32)cc1` (stereo not drawn) [Compound 29, N-(3-Methoxy-5–(3-(pyrrolidin-1-yl)piperidin-1-yl)phenyl)-7–(4-methoxyphenyl)-7H-pyrrolo[2,3-d]pyrimidin-2-amine], for which the IC50 on MERTK (setting [4]) and at AXL (Table 2) was 31 nM in each case. 1 µM produced 49% inhibition against TYRO3 [1].
For `CCCCNc1ncc2c(-c3ccc(CN4CCN(C)CC4)cc3)cn([C@H]3CC[C@H](O)CC3)c2n1` [UNC2025], the negative logarithm of the IC50 (pIC50) in the assay on Mer was […].
Turning to `CCOc1ccn(-c2ccc(F)cc2)c(=O)c1C(=O)Nc1ccc(Oc2ccnc(N)c2Cl)c(F)c1` [BMS-777607], the pIC50 in the assay with Mer is 7.85; at TYRO3 [3], 8.40.
As for `COc1ccc(-n2ccc3cnc(Nc4cc(OC)cc(N5CCC6(CCCC6)CC5)c4)nc32)cc1` [Compound 31, N-(3-Methoxy-5–(8-azaspiro[4.5]decan-8-yl)phenyl)-7–(4-methoxyphenyl)-7H-pyrrolo[2,3-d]pyrimidin-2-amine], the IC50 on MERTK (setting [4]) and on AXL (Table 2) was more than 3000 nM in each case. Also, testing at 1 µM at TYRO3 [1] gave an inhibition of 4%.
